Assay results reported in patent US20100298141A1, “SUBSTITUTED PYRIDINE N-OXIDE HERBICIDES” (E. I. DU PONT DE NEMOURS AND COMPANY, priority 2007, published 2010).

Columns and labels:
[1] = tested on: johnsongrass; assay: Test C pre-/postemergence test; assay type: in vivo, Sorghum halepense; conditions: Preemergence
Outline: (§1)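 Test chemicals were formulated with surfactant in a non-phytotoxic solvent and sprayed both on freshly planted seeds (preemergence) and on 1- to 4-leaf plants of 2–18 cm (postemergence). Flooded-paddy pots received compound directly into 3 cm of standing water, maintained for the test.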

[2] = tested on: umbrella sedge; assay: Test C flooded paddy test; assay type: in vivo, Cyperus difformis; conditions: Flood
Outline: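 Flooded 3 cm over soil; compound into paddy water; depth kept constant. Greenhouse 13–15 d.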

[3] = tested on: giant foxtail; assay: Test C pre-/postemergence test; assay type: in vivo, Setaria faberii; conditions: Preemergence
Outline: as §1

[4] = tested on: lambsquarters; assay: Test C pre-/postemergence test; assay type: in vivo, Chenopodium album; conditions: 62 g ai/ha, Preemergence; scale 0 to 100
Outline: as §1

[5] = tested on: soybean; assay: Test C pre-/postemergence test; assay type: in vivo, Glycine max; conditions: 62 g ai/ha, Preemergence; scale 0 to 100
Outline: as §1

[6] = tested on: cocklebur; assay: Test C pre-/postemergence test; assay type: in vivo, Xanthium strumarium
Outline: as §1

[7] = tested on: Goosegrass; assay: Test C pre-/postemergence test; assay type: in vivo, Eleusin indica; conditions: Preemergence
Outline: as §1

[8] = tested on: corn; assay: Test C pre-/postemergence test; assay type: in vivo, Zea mays
Outline: as §1

[9] = tested on: yellow nutsedge; assay: Test C pre-/postemergence test; assay type: in vivo, Cyperus esculentus; conditions: Preemergence
Outline: as §1

[10] = tested on: woolly cupgrass; assay: Test C pre-/postemergence test; assay type: in vivo, Eriochloa villosa; conditions: Preemergence
Outline: as §1

[11] = tested on: wheat; assay: Test A pre-/postemergence greenhouse test; assay type: in vivo, Triticum aestivum; conditions: for Wheat plant response rating: 0 to 100 scale
Outline: (§2)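 Sowing in loam/sand; same-day pre (directed soil spray) and post (foliar, 1–2 leaf, 2–10 cm) treatment with surfactant-containing non-phytotoxic solvent formulation; ~10 days in greenhouse; eye-scored injury against untreated plants.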

[12] = tested on: morningglory; assay: Test C pre-/postemergence test; assay type: in vivo, Ipomoea coccinea; conditions: Preemergence
Outline: as §1

[13] = tested on: common ragweed; assay: Test C pre-/postemergence test; assay type: in vivo, Ambrosia elation; conditions: 62 g ai/ha, Preemergence; scale 0 to 100
Outline: as §1

[14] = tested on: morningglory; assay: Test A pre-/postemergence greenhouse test; assay type: in vivo, Ipomoea spp.; conditions: for Morningglory plant response rating: 0 to 100 scale
Outline: as §2

[15] = tested on: crabgrass; assay: Test A pre-/postemergence greenhouse test; assay type: in vivo, Digitaria sanguinalis; conditions: for Crabgrass, Large plant response rating: 0 to 100 scale
Outline: as §2

[16] = tested on: giant foxtail; assay: Test A pre-/postemergence greenhouse test; assay type: in vivo, Setaria faberi; conditions: for Foxtail, Giant plant response rating: 0 to 100 scale
Outline: as §2

[17] = tested on: downy brome; assay: Test C pre-/postemergence test; assay type: in vivo, Bromus tectorum
Outline: as §1

[18] = 31 g ai/ha, scale 0 to 100 (0 no effect, 100 complete control)
[19] = 62 g ai/ha, Preemergence, scale 0 to 100
[20] = Preemergence, 31 g ai/ha, scale 0 to 100 (0 no effect, 100 complete control)
[21] = preemergence, 125 g ai/ha, scale 0 (no effect) to 100 (complete control)
[22] = Postemergence, 125 g ai/ha, 0 is no effect, 100 is complete control
[23] = Postemergence, 500 g ai/ha, 0 is no effect, 100 is complete control
[24] = Preemergence, 125 g ai/ha, 0 no effect, 100 complete control
[25] = Preemergence, 500 g ai/ha, 0 to 100 scale where 0 is no effect and 100 is complete control

With `Cn1nc(C(F)(F)F)c(CS(=O)(=O)c2cccc[n+]2[O-])c1OCC(F)(F)F` [Compound 29] the “Johnsongrass plant response rating” value ([1]; 62 g ai/ha, scale 0 to 100) was 100, the “Plant response rating, Johnsongrass” value [1, 18] was 100 and the “Plant response rating (0 to 100), Johnsongrass” value ([1]; 250 g ai/ha) was 100. For the same compound, the “Plant response rating, Sedge, Umbrella” value [2, 18] was 80, the “Plant response rating, Sedge, Umbrella” value ([2]; 62 g ai/ha, scale 0 to 100, 0 no effect, 100 complete control, 13 to 15 days) was 90 and the “Plant response rating, Sedge, Umbrella” value ([2]; 125 g ai/ha, scale 0 to 100, 0 no effect, 100 complete control, 13 to 15 days) was 90. The “Plant response rating, Sedge, Umbrella” value ([2]; 250 g ai/ha, scale 0 to 100, 0 no effect, 100 complete control, 13 to 15 days) was 95, the “Foxtail, Giant plant response rating” value ([3]; 62 g ai/ha, scale 0 to 100) was 100 and the “Plant response rating, Foxtail, Giant” value [3, 18] was 100. For the same compound, the “Plant response rating (0 to 100), Foxtail, Giant” value ([3]; 250 g ai/ha) was 100, the “Lambsquarters plant response rating” value [4] was 0 and the “Soybean plant response rating” value [5] was 70. For the same compound, the “Cocklebur plant response rating” value [6, 19] was 0, the “Plant response rating, Cocklebur” value [6, 20] was 0 and the “Plant response rating (0 to 100), Cocklebur” value ([6]; Preemergence, 250 g ai/ha) was 10. The “Cocklebur plant response rating” value [6, 21] was 0, the “Goosegrass plant response rating” value ([7]; 62 g ai/ha, scale 0 to 100) was 100 and the “Plant response rating, Goosegrass” value [7, 18] was 100. The “Plant response rating (0 to 100), Goosegrass” value ([7]; 250 g ai/ha) was 100, the “Corn plant response rating” value [8, 19] was 80 and the “Plant response rating, Corn” value [8, 20] was 0. For the same compound, the “Plant response rating (0 to 100), Corn” value ([8]; Preemergence, 250 g ai/ha) was 98, the “Corn plant response rating” value [8, 21] was 98 and the “Nutsedge, Yellow plant response rating” value ([9]; 62 g ai/ha, scale 0 to 100) was 100. The “Plant response rating, Nutsedge, Yellow” value [9, 18] was 80, the “Cupgrass, Woolly plant response rating” value ([10]; 62 g ai/ha, scale 0 to 100) was 100 and the “Plant response rating, Cupgrass, Woolly” value [10, 18] was 80. For the same compound, the “Plant response rating (0 to 100), Cupgrass, Woolly” value ([10]; 250 g ai/ha) was 100, the “Wheat plant response rating” value [11, 22] was 50 and the “Wheat plant response rating” value [11, 23] was 60. The “Wheat plant response rating” value [11, 24] was 60, the “Plant response rating, Wheat” value [11, 25] was 90 and the “Morningglory plant response rating” value ([12]; 62 g ai/ha, scale 0 to 100) was 10. The “Plant response rating, Morningglory” value [12, 18] was 0, the “Ragweed plant response rating” value [13] was 30 and the “Morningglory plant response rating” value [14, 22] was 30. For the same compound, the “Morningglory plant response rating” value [14, 23] was 80, the “Morningglory plant response rating” value [14, 24] was 70 and the “Plant response rating, Morningglory” value [14, 25] was 80. For the same compound, the “Crabgrass, Large plant response rating” value [15, 22] was 80, the “Crabgrass, Large plant response rating” value [15, 23] was 90 and the “Crabgrass, Large plant response rating” value [15, 24] was 90. The “Plant response rating, Crabgrass, Large” value [15, 25] was 100, the “Foxtail, Giant plant response rating” value [16, 22] was 80 and the “Foxtail, Giant plant response rating” value [16, 23] was 90. For the same compound, the “Foxtail, Giant plant response rating” value [16, 24] was 100, the “Plant response rating, Foxtail, Giant” value [16, 25] was 100 and the “Bromegrass, Downy plant response rating” value [17, 19] was 20. For the same compound, the “Plant response rating, Bromegrass, Downy” value [17, 20] was 0, the “Plant response rating (0 to 100), Bromegrass, Downy” value ([17]; Preemergence, 250 g ai/ha) was 60 and the “Bromegrass, Downy plant response rating” value [17, 21] was 60.
